Several values for one entry are separate records, joined by “and”; a condition that tells them apart may be missing. Identical values can stand only once. Numbers after ± are expanded uncertainties.
[1] = 283.15 K; 100 kPa; Liquid; Concentric cylinders viscometry
[2] = 283.15 K; 100 kPa; Liquid; Vibrating tube method
[3] = 288.15 K; 100 kPa; Liquid; Concentric cylinders viscometry
[4] = 288.15 K; 100 kPa; Liquid; Vibrating tube method
[5] = 293.15 K; 100 kPa; Liquid; Concentric cylinders viscometry
[6] = 293.15 K; 100 kPa; Liquid; Vibrating tube method
[7] = 298.15 K; 100 kPa; Liquid; Concentric cylinders viscometry
[8] = 298.15 K; 100 kPa; Liquid; Vibrating tube method
[9] = 303.15 K; 100 kPa; Liquid; Concentric cylinders viscometry
[10] = 303.15 K; 100 kPa; Liquid; Vibrating tube method
[11] = 308.15 K; 100 kPa; Liquid; Concentric cylinders viscometry
[12] = 308.15 K; 100 kPa; Liquid; Vibrating tube method
[13] = 313.15 K; 100 kPa; Liquid; Concentric cylinders viscometry
[14] = 313.15 K; 100 kPa; Liquid; Vibrating tube method
[15] = 318.15 K; 100 kPa; Liquid; Concentric cylinders viscometry
[16] = 318.15 K; 100 kPa; Liquid; Vibrating tube method
[17] = 323.15 K; 100 kPa; Liquid; Concentric cylinders viscometry
[18] = 323.15 K; 100 kPa; Liquid; Vibrating tube method
[19] = 328.15 K; 100 kPa; Liquid; Concentric cylinders viscometry
[20] = 328.15 K; 100 kPa; Liquid; Vibrating tube method
[21] = 333.15 K; 100 kPa; Liquid; Concentric cylinders viscometry
[22] = 333.15 K; 100 kPa; Liquid; Vibrating tube method
[23] = 338.15 K; 100 kPa; Liquid; Concentric cylinders viscometry
[24] = 338.15 K; 100 kPa; Liquid; Vibrating tube method
[25] = 343.15 K; 100 kPa; Liquid; Concentric cylinders viscometry
[26] = 343.15 K; 100 kPa; Liquid; Vibrating tube method
[27] = 348.15 K; 100 kPa; Liquid; Concentric cylinders viscometry
[28] = 348.15 K; 100 kPa; Liquid; Vibrating tube method
[29] = 353.15 K; 100 kPa; Liquid; Concentric cylinders viscometry
[30] = 353.15 K; 100 kPa; Liquid; Vibrating tube method
[31] = 358.15 K; 100 kPa; Liquid; Concentric cylinders viscometry
[32] = 358.15 K; 100 kPa; Liquid; Vibrating tube method
[33] = 363.15 K; 100 kPa; Liquid; Concentric cylinders viscometry
[34] = 363.15 K; 100 kPa; Liquid; Vibrating tube method

## CCCCn1cc[n+](C)c1.F[P-](F)(F)(F)(F)F [1-butyl-3-methylimidazolium hexafluorophosphate]
283.15 K; 100 kPa; Metastable liquid; Concentric cylinders viscometry
  viscosity: 794.33 ± 48 mPa·s
283.15 K; 100 kPa; Metastable liquid; Vibrating tube method
  mass density: 1379.9 ± 0.7 kg/m3
288.15 K; 100 kPa; Concentric cylinders viscometry; Liquid
  viscosity: 557.27 ± 33 mPa·s
288.15 K; 100 kPa; Vibrating tube method; Liquid
  mass density: 1376.5 ± 0.7 kg/m3
293.15 K; 100 kPa; Concentric cylinders viscometry; Liquid
  viscosity: 393.86 ± 22 mPa·s
293.15 K; 100 kPa; Vibrating tube method; Liquid
  mass density: 1372 ± 0.7 kg/m3
298.15 K; 100 kPa; Concentric cylinders viscometry; Liquid
  viscosity: 285.02 ± 16 mPa·s
298.15 K; 100 kPa; Vibrating tube method; Liquid
  mass density: 1367.6 ± 0.7 kg/m3
303.15 K; 100 kPa; Concentric cylinders viscometry; Liquid
  viscosity: 210.93 ± 11 mPa·s
303.15 K; 100 kPa; Vibrating tube method; Liquid
  mass density: 1363.4 ± 0.7 kg/m3
308.15 K; 100 kPa; Concentric cylinders viscometry; Liquid
  viscosity: 159.46 ± 8.3 mPa·s
308.15 K; 100 kPa; Vibrating tube method; Liquid
  mass density: 1359.2 ± 0.7 kg/m3
313.15 K; 100 kPa; Concentric cylinders viscometry; Liquid
  viscosity: 122.78 ± 6.3 mPa·s
313.15 K; 100 kPa; Vibrating tube method; Liquid
  mass density: 1355.1 ± 0.7 kg/m3
318.15 K; 100 kPa; Concentric cylinders viscometry; Liquid
  viscosity: 96.28 ± 4.9 mPa·s
318.15 K; 100 kPa; Vibrating tube method; Liquid
  mass density: 1351 ± 0.7 kg/m3
323.15 K; 100 kPa; Concentric cylinders viscometry; Liquid
  viscosity: 76.72 ± 3.9 mPa·s
323.15 K; 100 kPa; Vibrating tube method; Liquid
  mass density: 1347 ± 0.7 kg/m3
328.15 K; 100 kPa; Concentric cylinders viscometry; Liquid
  viscosity: 62.04 ± 3.1 mPa·s
328.15 K; 100 kPa; Vibrating tube method; Liquid
  mass density: 1342.9 ± 0.7 kg/m3
333.15 K; 100 kPa; Concentric cylinders viscometry; Liquid
  viscosity: 50.85 ± 2.6 mPa·s
333.15 K; 100 kPa; Vibrating tube method; Liquid
  mass density: 1338.9 ± 0.7 kg/m3
338.15 K; 100 kPa; Concentric cylinders viscometry; Liquid
  viscosity: 42.2 ± 2.1 mPa·s
338.15 K; 100 kPa; Vibrating tube method; Liquid
  mass density: 1334.9 ± 0.7 kg/m3
343.15 K; 100 kPa; Concentric cylinders viscometry; Liquid
  viscosity: 35.43 ± 1.8 mPa·s
343.15 K; 100 kPa; Vibrating tube method; Liquid
  mass density: 1330.9 ± 0.7 kg/m3
348.15 K; 100 kPa; Concentric cylinders viscometry; Liquid
  viscosity: 30.04 ± 1.5 mPa·s
348.15 K; 100 kPa; Vibrating tube method; Liquid
  mass density: 1326.9 ± 0.7 kg/m3
353.15 K; 100 kPa; Concentric cylinders viscometry; Liquid
  viscosity: 25.72 ± 1.3 mPa·s
353.15 K; 100 kPa; Vibrating tube method; Liquid
  mass density: 1323 ± 0.7 kg/m3
358.15 K; 100 kPa; Concentric cylinders viscometry; Liquid
  viscosity: 22.22 ± 1.1 mPa·s
358.15 K; 100 kPa; Vibrating tube method; Liquid
  mass density: 1319 ± 0.7 kg/m3
363.15 K; 100 kPa; Concentric cylinders viscometry; Liquid
  viscosity: 19.36 ± 0.97 mPa·s
363.15 K; 100 kPa; Vibrating tube method; Liquid
  mass density: 1315.2 ± 0.7 kg/m3

## CCCC[n+]1ccn(C)c1.O=S(=O)([N-]S(=O)(=O)C(F)(F)F)C(F)(F)F
[1]
  viscosity: 106.78 ± 5.5 mPa·s and 106.77 ± 5.5 mPa·s
[2]
  mass density: 1451.8 ± 0.8 kg/m3
[3]
  viscosity: 82.14 ± 4.2 mPa·s and 82.16 ± 4.2 mPa·s
[4]
  mass density: 1446.9 ± 0.8 kg/m3
[5]
  viscosity: 66.36 ± 3.3 mPa·s and 64.53 ± 3.3 mPa·s
[6]
  mass density: 1442.1 ± 0.8 kg/m3
[7]
  viscosity: 51.58 ± 2.6 mPa·s and 51.6 ± 2.6 mPa·s
[8]
  mass density: 1437.2 ± 0.8 kg/m3
[9]
  viscosity: 41.94 ± 2.1 mPa·s and 41.93 ± 2.1 mPa·s
[10]
  mass density: 1432.4 ± 0.7 kg/m3
[11]
  viscosity: 34.6 ± 1.7 mPa·s and 34.59 ± 1.7 mPa·s
[12]
  mass density: 1427.6 ± 0.7 kg/m3
[13]
  viscosity: 29.48 ± 1.5 mPa·s and 28.91 ± 1.5 mPa·s
[14]
  mass density: 1422.8 ± 0.7 kg/m3 and 1422.9 ± 0.7 kg/m3
[15]
  viscosity: 24.47 ± 1.2 mPa·s and 24.46 ± 1.2 mPa·s
[16]
  mass density: 1418.1 ± 0.7 kg/m3 and 1418.2 ± 0.7 kg/m3
[17]
  viscosity: 20.93 ± 1.1 mPa·s and 20.91 ± 1.1 mPa·s
[18]
  mass density: 1413.4 ± 0.7 kg/m3 and 1413.5 ± 0.7 kg/m3
[19]
  viscosity: 18.07 ± 0.91 mPa·s and 18.05 ± 0.91 mPa·s
[20]
  mass density: 1408.7 ± 0.7 kg/m3 and 1408.8 ± 0.7 kg/m3
[21]
  viscosity: 15.95 ± 0.8 mPa·s and 15.72 ± 0.79 mPa·s
[22]
  mass density: 1404.1 ± 0.7 kg/m3 and 1404 ± 0.7 kg/m3
[23]
  viscosity: 13.83 ± 0.7 mPa·s and 13.8 ± 0.69 mPa·s
[24]
  mass density: 1399.4 ± 0.7 kg/m3 and 1399.3 ± 0.7 kg/m3
[25]
  viscosity: 12.23 ± 0.62 mPa·s and 12.2 ± 0.61 mPa·s
[26]
  mass density: 1394.8 ± 0.7 kg/m3 and 1394.7 ± 0.7 kg/m3
[27]
  viscosity: 10.9 ± 0.55 mPa·s and 10.86 ± 0.55 mPa·s
[28]
  mass density: 1390.2 ± 0.7 kg/m3 and 1390.1 ± 0.7 kg/m3
[29]
  viscosity: 9.985 ± 0.5 mPa·s and 9.72 ± 0.49 mPa·s
[30]
  mass density: 1385.6 ± 0.7 kg/m3 and 1385.5 ± 0.7 kg/m3
[31]
  viscosity: 8.806 ± 0.44 mPa·s and 8.754 ± 0.44 mPa·s
[32]
  mass density: 1381.1 ± 0.7 kg/m3 and 1381 ± 0.7 kg/m3
[33]
  viscosity: 7.98 ± 0.4 mPa·s and 7.926 ± 0.4 mPa·s
[34]
  mass density: 1376.6 ± 0.7 kg/m3 and 1376.4 ± 0.7 kg/m3

## CCCCn1cc[n+](C)c1.COP(=O)([O-])OC [1-butyl-3-methyl-1H-imidazolium dimethylphosphate]
[1]
  viscosity: 2315.6 ± 160 mPa·s
[2]
  mass density: 1168.4 ± 1.2 kg/m3
[3]
  viscosity: 1454.6 ± 96 mPa·s
[4]
  mass density: 1164.9 ± 1.2 kg/m3
[5]
  viscosity: 943.97 ± 59 mPa·s
[6]
  mass density: 1161.4 ± 1.2 kg/m3
[7]
  viscosity: 641.71 ± 38 mPa·s
[8]
  mass density: 1157.9 ± 1.2 kg/m3
[9]
  viscosity: 446.92 ± 26 mPa·s
[10]
  mass density: 1154.3 ± 1.2 kg/m3
[11]
  viscosity: 319.33 ± 18 mPa·s
[12]
  mass density: 1150.9 ± 1.2 kg/m3
[13]
  viscosity: 232.1 ± 13 mPa·s
[14]
  mass density: 1147.6 ± 1.2 kg/m3
[15]
  viscosity: 174.7 ± 9.3 mPa·s
[16]
  mass density: 1144.3 ± 1.2 kg/m3
[17]
  viscosity: 133.37 ± 7 mPa·s
[18]
  mass density: 1141 ± 1.2 kg/m3
[19]
  viscosity: 103.62 ± 5.4 mPa·s
[20]
  mass density: 1137.8 ± 1.1 kg/m3
[21]
  viscosity: 81.97 ± 4.2 mPa·s
[22]
  mass density: 1134.6 ± 1.1 kg/m3
[23]
  viscosity: 65.62 ± 3.4 mPa·s
[24]
  mass density: 1131.4 ± 1.1 kg/m3
[25]
  viscosity: 53.39 ± 2.7 mPa·s
[26]
  mass density: 1128.3 ± 1.1 kg/m3
[27]
  viscosity: 44.01 ± 2.2 mPa·s
[28]
  mass density: 1125.1 ± 1.1 kg/m3
[29]
  viscosity: 37.08 ± 1.9 mPa·s
[30]
  mass density: 1122 ± 1.1 kg/m3
[31]
  viscosity: 30.94 ± 1.6 mPa·s
[32]
  mass density: 1118.9 ± 1.1 kg/m3
[33]
  viscosity: 26.33 ± 1.3 mPa·s
[34]
  mass density: 1115.7 ± 1.1 kg/m3

Source: the NIST ThermoML archive (doi:10.1021/acs.jced.6b00178)
